Data: patent US20210403864A1, “METHODS AND COMPOSITIONS FOR TREATING ACTIVATED G-ALPHA Q MUTANT CANCERS OR MELANOCYTIC MALIGNANCIES” (Memorial Sloan Kettering Cancer Center, priority 2018, published 2021)

Tests used:
[1] = test system: CYSLTR2^L129Q-expressing melan-a cells; experiment: TPA-independent cell growth, CellTiter-glo 2.0; assay type: cell-based, mouse; conditions: 5 days
Method: (§1) Data are expressed as the percentage relative light units (RLU) relative to that observed with vehicle. Error bars, s.e.m. from triplicate samples.
(§2) Data are expressed as the percentage RLU relative to that observed with vehicle. Error bars, s.e.m. from triplicate samples.
(§3) Cell Culture and in vitro analysis. Mutation dependent melan-a cells were generated by transducing cells with cDNAs in MSCV-PURO (retrovirus) and then selecting cells with puromycin (1 μg/ml) for two days. TPA (Sigma-Aldrich, St. Louis, Mo.) was then withdrawn from cultures. Cells with activating mutations (CYSLTR2^L129Q, GNAQ^G48V/R183Q/Q209L, KRAS^G12V, and BRAF^V600E) continued to proliferate over several passages (>2 weeks) and were then validated with qRT-PCR and immunoblots. Vector and WT controls were unable to maintain proliferation after a couple passages upon TPA withdrawal. All cells were cultured in media containing 10% FBS, L-glutamine ([…]), penicillin (100 U/ml), streptomycin (100 μg/ml). Melan-a cells provided by D. Bennett, St. George's Hospital, University of London (Johnson C P, et al., PLoS One. 12(6):1-17 (2017)), were cultured in RPMI supplemented with 200 nM TPA unless otherwise noted. HEK293T (from ATCC, Manassas, Va.) cells were cultured in DMEM-Q and UVM cells were cultured in RPMI. All cells tested negative for mycoplasma. Cell growth assays and YM dose response curves were assayed using CellTiter-glo 2.0 (Promega, Madison, Wis.) at given time points or after five days of incubation with YM and readout on a Glomax Luminometer (Promega, Madison, Wis.). IC50 values were calculated using Prism 7.0 software. Growth assays were compared to day 1 readings and dose response curves were compared to vehicle. Data shown is representative of at least three independent experiments with at least three technical replicates. Dose-response curves and growth assays were analyzed using GraphPad Prism 7.0 software.

[2] = test system: GNAQ^Q209L-expressing melan-a cells; experiment: TPA-independent cell growth, CellTiter-glo 2.0; assay type: cell-based, mouse; conditions: 5 days
Method: as §1, §2, §3

[3] = test system: GNAQ^R183Q-expressing melan-a cells; experiment: TPA-independent cell growth, CellTiter-glo 2.0; assay type: cell-based, mouse; conditions: 5 days, without TPA
Method: as §1, §3

[4] = test system: GNAQ^G48V-expressing melan-a cells; experiment: TPA-independent cell growth, CellTiter-glo 2.0; assay type: cell-based, mouse; conditions: 5 days, without TPA
Method: as §1, §3

[5] = test system: BRAF^V600E-expressing melan-a cells; experiment: TPA-independent cell growth, CellTiter-glo 2.0; assay type: cell-based, mouse; conditions: 5 days, without TPA
Method: as §1, §3

[6] = test system: KRAS^G12V-expressing melan-a cells; experiment: TPA-independent cell growth, CellTiter-glo 2.0; assay type: cell-based, mouse; conditions: 5 days, without TPA
Method: as §1, §3

[7] = test system: RASGRP3, CRAF, MEK, ERK phosphorylation and cyclin D1 expression; experiment: Western blot of Gαq downstream signaling in melan-a cells; assay type: cell-based, mouse
Method: The last sample for each cell line was also treated with TPA for 24 hours showing rescue of the pathway.
Samples were treated with 500 nM YM for 0, 2, 4, 8, and 24 hours with the last lane being treatment plus TPA add back.
Immunoblotting. Lysates were harvested using SDS lysis buffer (50 mM Tris-HCL, pH 6.8, 1 mM EDTA, 150 mM NaCl, 1% SDS, […]) supplemented with fresh proteinase and phosphatase inhibitors (PhosSTOP, Roche, Basel, Switzerland; Complete EDTA-Free, Roche, Basel, Switzerland) and 1% PMSF (Sigma-Aldrich, St. Louis, Mo.). Lysates were incubated on ice for 30 minutes, sonicated for 15 minutes, and then centrifuged at max speed for 10 minutes at 4° C. Protein levels were quantified using BCA protein assay (Thermo Scientific, Waltham, Mass.). NuPAGE LDS Sample Buffer (4×) was added to a final concentration of 1×. Samples were run on NuPAGE Novex 4-12% Bis-Tris protein gels (Life Technologies, Carlsbad, Calif.), transferred electrophoretically to 0.45 μm PVDF membranes (Immobilon, EMD Millipore, Burlington, Mass.), and then blocked with StartingBlock blocking buffer (Thermo Scientific, Waltham, Mass.) for 1 hour at room temperature. Primary antibodies were incubated at 4° C. overnight in StartingBlock buffer at 1:1,000 dilution, unless noted otherwise. Primary Antibodies used in the experiments described herein are provided below:
The effect of YM on Gαq downstream signaling was assayed, including RASGRP3 phosphorylation by PKC, phosphorylation of CRAF, MEK, and ERK (downstream of RAS) and cyclin D1 expression which integrates signaling to promote cell cycle progression.

[8] = test system: A375 cells (BRAF^V600E cutaneous melanoma); experiment: Cell proliferation dose response, CellTiter-glo 2.0; assay type: cell-based, human; conditions: 5 days
Method: as §2, §3

[9] = test system: SK-MEL-2 cells (NRAS^Q61R); experiment: as above; assay type: cell-based, human; conditions: 5 days
Method: as §2, §3

[10] = test system: A549 cells (KRAS^G12S); experiment: as above; assay type: cell-based, human; conditions: 5 days
Method: as §2, §3

[11] = test system: OMM1.3 cells; experiment: as above; assay type: cell-based, human; conditions: 5 days, approximate
Method: as §2, §3

[12] = test system: Mel202 cells; experiment: as above; assay type: cell-based, human; conditions: 5 days, approximate
Method: as §2, §3

[13] = test system: Mel290 cells; experiment: as above; assay type: cell-based, human; conditions: 5 days, UVM line lacking GNAQ/11 mutations
Method: as §2, §3

[14] = test system: Mel285 cells; experiment: as above; assay type: cell-based, human; conditions: 5 days, UVM line lacking GNAQ/11 mutations
Method: as §2, §3

[15] = test system: Mel270 cells; experiment: as above; assay type: cell-based, human; conditions: 5 days, approximate
Method: as §2, §3

[16] = test system: Gq-mutant OMIM1.3 uveal melanoma cells; experiment: Colony formation assay; assay type: cell-based, human; conditions: 1000 cells per well, until colonies visible in vehicle plates
Method: (§4) To evaluate the effect of YM-254890 and trametinib in vitro, colony formation assays were performed. 1000 cells per well of the following cell lines were plated: (1) BRAF-mutant A375 cutaneous melanoma cells, (2) Gq-mutant Mel202 cells, and (3) Gq-mutant OMIM1.3 uveal melanoma cells. The cells were then treated with a negative vehicle control, YM-254890, trametinib, or both. Cells were allowed to grow until visible colonies formed in the vehicle-treated plates.

[17] = test system: BRAF-mutant A375 cutaneous melanoma cells; experiment: Colony formation assay; assay type: cell-based, human; conditions: 1000 cells per well, until colonies visible in vehicle plates
Method: as §4

[18] = test system: Gq-mutant Mel202 cells; experiment: Colony formation assay; assay type: cell-based, human; conditions: 1000 cells per well, until colonies visible in vehicle plates
Method: as §4

YM-254890
YM-mediated growth inhibition in the presence of TPA ([1]; with TPA): rescued | sensitivity of TPA-independent cell growth to YM ([1]; without TPA): sub-nanomolar sensitivity | YM-mediated growth inhibition in the presence of TPA ([2]; with TPA): rescued | sensitivity of TPA-independent cell growth to YM ([2]; without TPA): modestly less sensitive | sensitivity of TPA-independent cell growth to YM [3]: modestly less sensitive | sensitivity of TPA-independent cell growth to YM [4]: sub-nanomolar sensitivity | sensitivity of TPA-independent cell growth to YM [5]: completely resistant | sensitivity of TPA-independent cell growth to YM [6]: completely resistant | downstream signaling targets with TPA supplementation ([7]; 24 hours after YM treatment, plus TPA): completely rescued | inhibition of MAPK signaling ([7]; BRAF^V600E-expressing melan-a cells, 500 nM YM): ineffective | inhibition of downstream signaling targets (p-RASGRP3, p-CRAF, p-MEK, p-ERK, cyclin D1) ([7]; CYSLTR2^L129Q, GNAQ^G48V, GNAQ^R183Q and GNAQ^Q209L-expressing melan-a cells, 500 nM YM, 0-24 hours): inhibited | kinetics of inhibition of downstream signaling compared to CYSLTR2^L129Q and GNAQ^G48V-expressing cells ([7]; GNAQ^Q209L-expressing melan-a cells, 500 nM YM): slower kinetics | kinetics of inhibition of downstream signaling compared to CYSLTR2^L129Q and GNAQ^G48V-expressing cells ([7]; GNAQ^R183Q-expressing melan-a cells, 500 nM YM): slower kinetics | inhibition of MAPK signaling ([7]; KRAS^G12V-expressing melan-a cells, 500 nM YM): ineffective | sensitivity of proliferation to YM [8]: resistant | sensitivity of proliferation to YM [9]: resistant | sensitivity of proliferation to YM [10]: resistant | IC50 [11]: ~100 nM | IC50 [12]: ~100 nM | sensitivity of proliferation to YM [13]: resistant | sensitivity of proliferation to YM [14]: resistant | IC50 [15]: ~100 nM | colony formation [16]: moderate sensitivity | colony formation [17]: resistant | colony formation [18]: moderate sensitivity
